# Patent US10323266B2, “Antimicrobial susceptibility testing device, antimicrobial susceptibility testing kit, and antimicrobial susceptibility testing method” (Hitachi, Ltd., priority 2015, dated 2019)
# Test system: Escherichia coli (ATCC25922 strain)
# Experiment: antimicrobial susceptibility test by an ATP method (ATP luminescence), E. coli
# Type: cell-based
# Settings: for RLU value as compared with that at ampicillin 0 μg/mL: plateau after 2 hours
# Text: In the Example, the amount of luminescence is expressed by the integration of the 60-sec photon count, and the unit is the amount of luminescence (a.u.). Since the amount of luminescence and the amount of ATP are in a proportional relationship, the increase in the amount of luminescence and the increase in the amount of ATP are to be expressed with the same implications.
# Benzalkonium chloride was used as an extraction liquid, and Lucifer HS set (Kikkoman) was used as a luminescence reagent.
# First, H. influenzae was cultured one night on a chocolate agar medium under a carbon dioxide gas atmosphere of 5 to 10%, and on the next day, the colony was suspended in a Mueller-Hinton (hereinafter referred to as MH) medium to produce a bacterial suspension that was prepared to 0.5 McFarland. Next, in a plate in which 50 μL each of an MH medium with the antibody of the two-fold concentration of the final concentration was previously dispensed, 50 μL each of a bacterial suspension diluted 500-fold with the MH medium was dispensed to provide an AST panel.
# The first plate 21 and the second plate 22 were joined via the joint portion 23. The temperature of the ATP examination culture plate 12 was kept at 37° C. by the heater 11 and after a certain period of time, 10 μL of the bacterial culture solution of H. influenzae was dispensed from the culture vessel in the first plate 21 into the reaction vessel in the second plate 22 in which the gas atmosphere was previously prepared to 5 to 10% carbon dioxide. Subsequently, 10 μL of the extraction liquid was dispensed from the extraction liquid holding part 43 into the reaction vessel, and then 50 μL of the luminescence reagent was dispensed from the luminescence reagent holding part 46 into the reaction vessel.
# After dispensing the luminescence reagent, the amount of luminescence in the reaction vessel was detected by the optical detector 13. In the optical detector 13, photo-counting was performed for 1 minute, and the detected amount of luminescence RLU (relative light unit) was used as a measure of the amount of ATP.
# Example 2 was conducted in the same manner as in Example 1, except that Escherichia coli (ATCC25922 strain, hereinunder, E. coli) was used as bacterial cells, ampicillin was used as an antibody, and the gas atmosphere in the culture solution holding part 47 and the reaction vessel 44 of the ATP examination culture plate 21 was an air atmosphere. The antibody (ampicillin) concentration was 0, 2, 4, and 8 μg/mL. […] When the ampicillin concentration was 0 μg/mL, RLU increased in an exponential manner from the start of the culture until 4 hours, and thereafter ran at a constant value. […] On the other hand, when the ampicillin concentration was 4 μg/mL and 8 μg/mL, RLU increased from the start of the culture until 2 hours and thereafter ran at a constant value. The RLU value was as low as about 1/20 as compared with that at an ampicillin concentration of 0 μg/mL, and it can be seen that the growth of E. coli was suppressed by the action of ampicillin.
structure (smiles),measurement,setting,value
CC1(C)S[C@@H]2[C@H](NC(=O)[C@H](N)c3ccccc3)C(=O)N2[C@H]1C(=O)O [ampicillin],susceptibility determination of E. coli,ampicillin 2 μg/mL,resistant
same,RLU time course compared with ampicillin 0 μg/mL,"ampicillin 2 μg/mL, air atmosphere, FIG. 10, 0 μg/mL: exponential increase until 4 hours, then constant",a similar trend was shown
same,susceptibility determination of E. coli,ampicillin 4 μg/mL,has sensitivity
same,RLU value as compared with that at ampicillin 0 μg/mL,"ampicillin 4 μg/mL, air atmosphere, FIG. 10",about 1/20
same,susceptibility determination of E. coli,ampicillin 8 μg/mL,has sensitivity
same,RLU value as compared with that at ampicillin 0 μg/mL,"ampicillin 8 μg/mL, air atmosphere, FIG. 10",about 1/20
same,concentration at which E. coli has sensitivity,"tested 0, 2, 4 and 8 μg/mL, ATP luminescence",≥ 4 µg/mL
